Paper PMC7997032, “Organic synthesis and anti-influenza A virus activity of cyclobakuchiols A, B, C, and D” (PLoS ONE, 2021)
Where “and” joins values, the source holds several entries; their conditions need not be identical. Equal values may be shown once.

Test system: MDCK cells
Experiment: MTT assay (cytotoxicity against MDCK cells)
Type: cell-based, canine
Details: MDCK cells; for MTT, DMSO as 100 (DMSOを 100として), ave / MTT 72h AVE (DMSO = 100): 72h; for MTT, DMSO as 100 (DMSOを 100として), ave: mean of 5 wells (200409 #1 and #3); for MTT 72h AVE (DMSO = 100): summary AVE; for MTT 24h, AVE (DMSO as 100): 0.78 uM, relative to DMSO = 100; for MTT 24h, AVE (DMSO as 100) / MTT 24h, 570-650nm, DMSO as 100, ave: mean of 5 wells from 3 experiments; for MTT 24h, 570-650nm, DMSO as 100, single replicate: individual wells (200331; 200403 #2 1,2; 200403 #3 1,2); for 570-650nm (MTT absorbance, single wells) / 570-650nm ave (mean MTT absorbance of 5 wells) / MTT absorbance with DMSO as 100 (DMSOを 100として), single wells: MTT 72h; for 570-650nm (MTT absorbance, single wells): experiments #1-#3, duplicate wells; for MTT absorbance with DMSO as 100 (DMSOを 100として), single wells: relative to mean of DMSO
Experimental: 1–5 (0.8–100 μM) were prepared in DMSO (100 μM, 1%; 50 μM, 0.5%; 25 μM, 0.25%; 12.5 μM, 0.125%; 6.3 μM, 0.063%; 3.1 μM, 0.031%; 1.6 μM, 0.016%; 0.8 μM, 0.008%) and mixed with infection medium (DMEM supplemented with 1% bovine serum albumin (BSA; Wako), P/S and 4 mM L-glutamine). The resulting mixture was added to the cells and incubated for 24 or 72 h at 37°C in the presence of 5% CO2. After incubation, cell viability was determined using an MTT cell count kit (Nacalai Tesque) according to the manufacturer’s instructions, as previously described.

[1] = 3.13uM (3.125uM in summary block)

| SMILES | MTT, DMSO as 100 (DMSOを 100として), ave (0.78uM) | MTT, DMSO as 100 (DMSOを 100として), ave (1.56uM) | MTT 72h AVE (DMSO = 100) (6.25 (uM)) | MTT 72h AVE (DMSO = 100) (12.5 (uM)) | MTT 72h AVE (DMSO = 100) (25 (uM)) | MTT 72h AVE (DMSO = 100) (50 (uM)) | MTT 72h AVE (DMSO = 100) (100 (uM)) | MTT 24h, AVE (DMSO as 100) | MTT 24h, 570-650nm, DMSO as 100, single replicate (1.56uM) | MTT 24h, 570-650nm, DMSO as 100, ave (1.56uM) | MTT 24h, 570-650nm, DMSO as 100, single replicate (3.125uM) | MTT 24h, 570-650nm, DMSO as 100, ave (3.125uM) | MTT 24h, 570-650nm, DMSO as 100, single replicate (6.25uM) | MTT 24h, 570-650nm, DMSO as 100, ave (6.25uM) | MTT 24h, 570-650nm, DMSO as 100, single replicate (12.5uM) | MTT 24h, 570-650nm, DMSO as 100, ave (12.5uM) | MTT 24h, 570-650nm, DMSO as 100, single replicate (25uM) | MTT 24h, 570-650nm, DMSO as 100, ave (25uM) | MTT 24h, 570-650nm, DMSO as 100, single replicate (50uM) | MTT 24h, 570-650nm, DMSO as 100, ave (50uM) | also measured |
| --- | --- | --- | --- | --- | --- | --- | --- | --- | --- | --- | --- | --- | --- | --- | --- | --- | --- | --- | --- | --- | --- |
| C=C[C@@](C)(/C=C/c1ccc(O)cc1)CCC=C(C)C [(+)-(S)-baku.] | 101.639 | 110.926 | 135.974 | 116.119 | 164.273 | 107.359 | 28.7987 | 106.986 | 103.696 and 92.7462 and 106.461 and 104.983 and 94.4526 | 100.468 | 107.294 and 97.5488 and 102.772 and 101.94 and 95.2685 | 100.964 | 108.582 and 98.5976 and 113.546 and 113.49 and 101.426 | 107.128 | 102.57 and 93.2171 and 103.913 and 112.439 and 104.302 | 103.288 | 108.875 and 109.835 and 96.176 and 115.944 and 106.769 | 107.52 | 119.708 and 122.77 and 91.784 and 117.912 and 113.767 | 113.188 | MTT 72h AVE (DMSO = 100) (3.13 (uM)): 132.176; MTT 24h, 570-650nm, DMSO as 100, single replicate (100uM): 79.067 and 84.0157 and 140.292 and 89.6781 and 39.1391; MTT 24h, 570-650nm, DMSO as 100, ave (100uM): 86.4384; 570-650nm (MTT absorbance, single wells) (0.78uM): 0.9216 and 1.0625 and 0.5565 and 0.8595 and 0.8044 and 0.7519; 570-650nm (MTT absorbance, single wells) (1.56uM): 0.9826 and 0.8065 and 0.7089 and 0.7456 and 0.6067 and 0.9846; 570-650nm ave (mean MTT absorbance of 5 wells) (3.125uM): 0.8903; MTT absorbance with DMSO as 100 (DMSOを 100として), single wells (3.125uM): 116.345 and 146.749 and 122.432 and 152.375 and 122.981; 570-650nm (MTT absorbance, single wells) [1]: 0.8284 and 0.7837 and 0.9885 and 0.8247 and 1.0264 and 0.8069; 570-650nm ave (mean MTT absorbance of 5 wells) (6.25uM): 0.9301; 570-650nm (MTT absorbance, single wells) (6.25uM): 0.9089 and 0.9123 and 0.7679 and 0.9049 and 1.1563 and 0.9272; MTT absorbance with DMSO as 100 (DMSOを 100として), single wells (6.25uM): 133.377 and 112.266 and 132.295 and 169.05 and 132.88; 570-650nm ave (mean MTT absorbance of 5 wells) (12.5uM): 0.9243; 570-650nm ave (mean MTT absorbance of 5 wells) (25uM): 1.2355; 570-650nm (MTT absorbance, single wells) (25uM): 1.2252 and 1.1953 and 1.2444 and 1.2282 and 1.1748 and 1.3049; MTT absorbance with DMSO as 100 (DMSOを 100として), single wells (25uM): 165.457 and 163.303 and 156.203 and 173.501 and 162.904; 570-650nm ave (mean MTT absorbance of 5 wells) (50uM): 0.9798; 570-650nm ave (mean MTT absorbance of 5 wells) (100uM): 0.2711; 570-650nm (MTT absorbance, single wells) (100uM): 0.1982 and 0.2036 and 0.3213 and 0.2978 and 0.3355 and 0.2029; MTT absorbance with DMSO as 100 (DMSOを 100として), single wells (100uM): 34.1264 and 31.6304 and 35.6346 and 21.5507 and 21.0515 |
| C=C[C@]1(C)CC[C@H](C(=C)C)[C@@H](c2ccc(O)cc2)C1 [Cyclo. A] | 105.716 | 110.791 | 127.594 | 109.498 | 139.303 | 115.79 | 76.9772 | 98.7342 | 96.4276 and 83.3373 and 92.051 and 113.855 and 70.8632 | 91.3068 | 90.7466 and 86.7485 and 103.011 and 110.013 and 65.2713 | 91.158 | 105.57 and 88.5259 and 94.0239 and 117.378 and 78.8606 | 96.8717 | 102.53 and 101.147 and 92.3748 and 125.129 and 78.3815 | 99.9126 | 98.9543 and 93.1175 and 86.0556 and 130.26 and 81.3877 | 97.9551 | 112.693 and 118.709 and 75.6574 and 146.7 and 98.6391 | 110.48 | MTT, DMSO as 100 (DMSOを 100として), ave (3.125uM): 135.974; MTT 24h, 570-650nm, DMSO as 100, single replicate (100uM): 18.7526 and 22.4148 and 109.83 and 20.6307 and 19.4099; MTT 24h, 570-650nm, DMSO as 100, ave (100uM): 38.2076; 570-650nm (MTT absorbance, single wells) (0.78uM): 0.7522 and 1.0518 and 0.8482 and 0.7789 and 0.8023 and 0.8685; 570-650nm (MTT absorbance, single wells) [1]: 0.6647 and 0.8265 and 0.8832 and 1.0096 and 1.017 and 1.0051; 570-650nm ave (mean MTT absorbance of 5 wells) (6.25uM): 0.8727; 570-650nm (MTT absorbance, single wells) (6.25uM): 0.8664 and 0.8077 and 0.726 and 1.0037 and 0.9599 and 0.9185; MTT absorbance with DMSO as 100 (DMSOを 100として), single wells (6.25uM): 118.085 and 106.14 and 146.74 and 140.336 and 126.667; 570-650nm ave (mean MTT absorbance of 5 wells) (12.5uM): 0.8716; 570-650nm (MTT absorbance, single wells) (12.5uM): 0.7966 and 0.8514 and 0.5539 and 1.0521 and 0.9774 and 0.9778; MTT absorbance with DMSO as 100 (DMSOを 100として), single wells (12.5uM): 69.5889 and 132.18 and 122.795 and 122.845 and 100.08; 570-650nm ave (mean MTT absorbance of 5 wells) (25uM): 1.0477; 570-650nm (MTT absorbance, single wells) (25uM): 0.9324 and 1.0073 and 0.9924 and 1.0024 and 1.1748 and 1.1365; MTT absorbance with DMSO as 100 (DMSOを 100として), single wells (25uM): 131.951 and 133.28 and 156.203 and 151.11 and 123.973; 570-650nm ave (mean MTT absorbance of 5 wells) (50uM): 1.057; 570-650nm (MTT absorbance, single wells) (50uM): 1.0423 and 1.105 and 0.762 and 0.9117 and 1.3276 and 1.24; MTT absorbance with DMSO as 100 (DMSOを 100として), single wells (50uM): 83.4959 and 99.8992 and 145.471 and 135.873 and 114.21; 570-650nm ave (mean MTT absorbance of 5 wells) (100uM): 0.7247 |
